The values below come from patent US11771711B2, “Substituted pyridines as DNMT1 inhibitors” (GlaxoSmithKline Intellectual Property Development Limited, priority 2021, dated 2023).

In brackets after ≈: the same amount, converted by molar mass.

In one series the target is Full-length human DNMT1 (Homo sapiens (Human), UniProt P26358). As to the kind of experiment: DNMT1 Scintillation Proximity Assay (SPA) - Assay A. Particulars: footnote a: DNMT1 full length. Type of series: biochemical. The procedure:
DNMT1 Scintillation Proximity Assay (SPA)—Assay A (Full-Length Human DNMT1)
This assay used Scintillation Proximity technology in a signal increase format to evaluate the potency of compounds. Full-length human DNMT1, hemi-methylated DNA duplex*, and tritiated SAM were utilized to monitor activity. Assay plate creation consisted of the following parameters: 500 nL of an 11 pt, 3-fold serial dilution of compound was stamped into a 96 well Costar plate (#3884). Assay buffer mix was made on the day of assay consisting of: 20 mM Tris pH 7.5, 1 mM DTT, 1 mM EDTA, and 5% glycerol. A 2× enzyme mix was then prepared consisting of 30 nM DNMT1 protein (full length human DNMT, made in house) in assay buffer. The 2× substrate mix was made last, and consisted of 160 nM 40mer hemi-methylated DNA*, 0.48 μM ^3H-SAM, and 2.92 μM cold SAM in assay buffer (^3H-SAM is added last). The quench (1 mM SAH) was made in bulk and frozen at −20 until the time of use. Ten uL of the 2× substrate mix was added to the entire plate using a multichannel electronic pipette. Plate was shaken for at least 10s between additions to ensure mixing. Next, 20 uL of 2× quench mix was added to column 12 using a multichannel pipette (shake plate). Using a multichannel electronic pipette, 10 uL of 2× enzyme mix was added to the full plate starting with column […] (column 12 last to avoid pre-quench carryover). Plates were incubated on the shaker for 30 minutes with the plate covered. At the end of the incubation period, 20 uL of quench mix were added to all wells except column 12 (shake plate) followed by the addition of 20 uL of 3 mg/mL PerkinElmer PEI PVT SPA Beads (Cat. #RPNQ0097) diluted in DNAse free water and allowed to shake for at least 30 minutes. Plates were sealed with a clear seal and centrifuged at 500 rpm for 1 min. Plates were read on a MicroBeta (Perkin Elmer, read for ^3H (1 min/well).
Microsoft Excel was used to analyze the data up to Vi/Vo and GraFit was used to fit the data. Responses were normalized to the uninhibited (DMSO) and pre-quenched controls within each plate. Dose-response curves were analyzed using a three-parameter logistic fit with Ymin constrained to 0 and results were expressed as IC50 values.
Final assay conditions: 20 mM Tris (Hampton Research—HR-937-06), pH 7.5, 1 mM DTT (Invitrogen—P2325), 1 mM EDTA (Invitrogen—AM9260G), 5% Glycerol (Teknova—G1796), 0.02% Pluronic F127 (Life Technologies—P6866), 15 nM DNMT1 (full length human DNMT1—GSK made in-house), 240 nM ^3H-SAM (PerkinElmer—NET155H001MC), 1460 nM cold SAM (New England Biolabs—B9003S) and 80 nM 40-mer hemi-methylated DNA Oligonucleotide (Integrated DNA Technologies—custom), 1 mM SAH (Sigma A9384), and 1 mg/mL PEI PVT SPA Beads (Perkin Elmer RPNQ0097) resuspended in water.

A further series can be described thus: physchem. Particulars: FaSSIF buffer, pH 6.5, fassif, thermodynamic from solid.
The conditions of series [1]: internal standards tested alongside in FaSSIF assay; cited from earlier work.
For series [2], the target named is Human truncated DNMT1(601-1600) (Homo sapiens (Human), UniProt P26358). As to the kind of experiment: DNMT1 Scintillation Proximity Assay (SPA) - Assay B. Type of series: biochemical. Particulars: footnote b: DNMT1 truncate. As to the method:
DNMT1 Scintillation Proximity Assay (SPA)—Assay B (Human Truncated DNMT1(601-1600))
This assay used Scintillation Proximity technology in a signal increase format to evaluate the potency of compounds. Human truncated DNMT1(601-1600), single hemi-methylated CpG site oligonucleotide, and Tritiated SAM were utilized to monitor activity. Assay plate creation consisted of the following parameters: 10 mM Compounds (11-point, 3-fold serial dilution) were stamped at 100 nL per well (100× in 100% DMSO) into a Griener white LV 384 well plate (#784075). Assay buffer mix was made on the day of assay consisting of: base buffer: (500 mM Hepes, ph 8, 1M MgCl2 made in advance, stored at room temp as a stock), 10% NP40-Surfact AMPS, 10% Ultrapure BSA 50 mg/ml, and 2M DTT (DL-Dithiolthreitol). The 2× enzyme mix was then prepared consisting of: DNMT1 protein (truncate human DNMT1—601-1600, made in house at 16.876 uM stock concentration) added to the assay buffer mix. […] Plates were read on a Viewlux (PerkinElmer, 613 nm emission filter, 300 sec dual-exposure, (10 min. total read time)).
The Abase database was used to analyze the data. […] Dose-response curves were analyzed using a four-parameter logistic fit and results were expressed as pIC50 values. […]
A general note: SPA uses beads or plates that emit light when radiolabelled molecules are held near them.

Series [3] can be described thus: Rat pharmacokinetic study (oral bioavailability). Type of series: in vivo. Particulars: blood, PO gavage vs 60 minute IV infusion, 5% DMA/15% Solutol. The procedure: Pharmacokinetic Studies: All studies were conducted in accordance with the GSK Policy on the Care, Welfare and Treatment of Laboratory Animals and were reviewed either by the Institutional Animal Care and Use Committee at GSK or by the ethical review process at the institution where the studies were performed. Pharmacokinetic studies for example 2 were conducted using non-fasted, Male Wistar Han rats, n=3/dose route and for reference compound 4, non-fasted male Sprague-Dawley rats, n=2/dose route in a non-crossover design. Compounds were prepared as solutions in 5% DMA/15% Solutol and administered as a 60 minute IV infusion and PO gavage. Blood samples were collected serially at multiple time points from pre-dose through 24 hours post dose and the analytes were quantified by LC/MS/MS. The percent bioavailability was calculated by comparison of the dose normalized Area Under the Curve (DNAUC) obtained from PO dosing with the DNAUC from the IV route [(PO DNAUC/IV DNAUC)*100].

Sequence of Full-length human DNMT1 (P26358 whole entry): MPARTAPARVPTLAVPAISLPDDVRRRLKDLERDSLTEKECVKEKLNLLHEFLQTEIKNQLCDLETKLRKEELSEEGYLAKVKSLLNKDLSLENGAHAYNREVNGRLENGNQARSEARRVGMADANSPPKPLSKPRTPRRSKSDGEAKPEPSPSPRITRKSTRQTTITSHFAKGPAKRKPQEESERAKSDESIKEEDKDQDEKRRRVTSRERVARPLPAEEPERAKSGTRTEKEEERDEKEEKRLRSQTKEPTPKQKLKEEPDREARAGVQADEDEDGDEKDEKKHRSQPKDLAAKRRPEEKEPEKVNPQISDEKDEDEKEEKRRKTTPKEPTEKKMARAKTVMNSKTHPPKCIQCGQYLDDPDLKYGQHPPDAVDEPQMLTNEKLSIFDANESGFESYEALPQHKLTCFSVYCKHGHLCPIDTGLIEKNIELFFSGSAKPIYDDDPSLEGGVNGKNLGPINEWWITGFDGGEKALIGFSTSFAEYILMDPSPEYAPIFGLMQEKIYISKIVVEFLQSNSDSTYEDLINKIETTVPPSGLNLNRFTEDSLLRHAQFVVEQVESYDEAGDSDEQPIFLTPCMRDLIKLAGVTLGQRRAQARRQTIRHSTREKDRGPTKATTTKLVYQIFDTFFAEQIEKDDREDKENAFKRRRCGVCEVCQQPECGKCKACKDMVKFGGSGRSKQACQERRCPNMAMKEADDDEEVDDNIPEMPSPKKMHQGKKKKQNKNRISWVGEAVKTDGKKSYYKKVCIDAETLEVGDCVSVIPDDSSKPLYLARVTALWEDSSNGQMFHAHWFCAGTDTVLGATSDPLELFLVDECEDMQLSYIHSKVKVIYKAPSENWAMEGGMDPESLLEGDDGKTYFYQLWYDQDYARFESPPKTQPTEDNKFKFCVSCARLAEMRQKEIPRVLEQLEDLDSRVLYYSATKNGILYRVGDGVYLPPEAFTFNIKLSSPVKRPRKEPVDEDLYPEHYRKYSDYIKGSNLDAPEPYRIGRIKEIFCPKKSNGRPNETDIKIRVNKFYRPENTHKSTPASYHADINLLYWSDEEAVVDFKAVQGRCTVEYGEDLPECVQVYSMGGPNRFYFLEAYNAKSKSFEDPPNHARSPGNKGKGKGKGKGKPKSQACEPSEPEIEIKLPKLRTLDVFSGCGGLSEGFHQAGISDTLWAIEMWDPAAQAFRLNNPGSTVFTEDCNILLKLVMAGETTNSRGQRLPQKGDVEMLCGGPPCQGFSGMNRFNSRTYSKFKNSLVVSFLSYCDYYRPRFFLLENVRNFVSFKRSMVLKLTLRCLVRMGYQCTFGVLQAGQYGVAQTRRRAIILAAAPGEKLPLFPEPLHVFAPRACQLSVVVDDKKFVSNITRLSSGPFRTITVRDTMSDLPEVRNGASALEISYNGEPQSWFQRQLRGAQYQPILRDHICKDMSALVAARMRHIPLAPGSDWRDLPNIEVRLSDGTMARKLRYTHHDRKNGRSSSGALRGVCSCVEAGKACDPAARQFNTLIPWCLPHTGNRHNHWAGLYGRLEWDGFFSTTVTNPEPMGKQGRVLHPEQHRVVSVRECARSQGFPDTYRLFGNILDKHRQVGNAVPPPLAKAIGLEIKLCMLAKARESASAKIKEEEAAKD
Sequence of Human truncated DNMT1(601-1600) (P26358 601-1600): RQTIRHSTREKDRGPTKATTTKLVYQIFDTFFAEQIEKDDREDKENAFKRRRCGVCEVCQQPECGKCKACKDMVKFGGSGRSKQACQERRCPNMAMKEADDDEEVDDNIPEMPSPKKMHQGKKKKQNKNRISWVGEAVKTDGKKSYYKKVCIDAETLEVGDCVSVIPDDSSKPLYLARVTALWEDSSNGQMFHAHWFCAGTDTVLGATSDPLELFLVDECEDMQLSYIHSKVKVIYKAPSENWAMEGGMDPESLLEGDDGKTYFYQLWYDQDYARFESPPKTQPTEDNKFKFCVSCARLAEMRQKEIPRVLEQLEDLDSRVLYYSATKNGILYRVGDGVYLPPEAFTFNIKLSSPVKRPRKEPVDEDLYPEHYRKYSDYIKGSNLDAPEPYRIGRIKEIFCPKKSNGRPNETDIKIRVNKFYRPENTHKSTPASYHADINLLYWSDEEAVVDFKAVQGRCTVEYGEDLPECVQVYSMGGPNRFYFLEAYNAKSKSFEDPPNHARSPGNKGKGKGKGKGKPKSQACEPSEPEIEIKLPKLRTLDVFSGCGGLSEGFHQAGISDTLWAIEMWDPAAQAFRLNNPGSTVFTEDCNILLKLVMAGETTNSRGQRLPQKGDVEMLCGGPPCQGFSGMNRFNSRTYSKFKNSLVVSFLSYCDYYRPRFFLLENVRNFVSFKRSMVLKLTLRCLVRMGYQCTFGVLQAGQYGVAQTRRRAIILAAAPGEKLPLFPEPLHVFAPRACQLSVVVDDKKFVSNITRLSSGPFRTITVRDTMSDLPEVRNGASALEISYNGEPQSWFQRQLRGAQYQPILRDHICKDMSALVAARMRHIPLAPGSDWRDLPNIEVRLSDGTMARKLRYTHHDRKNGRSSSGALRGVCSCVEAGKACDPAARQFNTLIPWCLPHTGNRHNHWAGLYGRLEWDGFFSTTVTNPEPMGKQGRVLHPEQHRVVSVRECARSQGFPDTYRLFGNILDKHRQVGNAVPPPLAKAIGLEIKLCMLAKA
Experimental for physchem: Solubility of Solid Compounds in Fasted Simulated Intestinal Fluid
The solubility of solid compounds in Fasted Simulated Intestinal Fluid (FaSSIF) was determined at pH 6.5 after 4 hour equilibration at room temperature (using procedures described in Sou, T.; Bergström, C. A. S. Automated assays for thermodynamic (equilibrium) solubility determination. Drug Discovery Today: Technologies 2018, 27, 11-19). 1 ml of FaSSIF buffer (3 mM Sodium taurocholate, 0.75 mM lecithin in sodium phosphate buffer at pH6.5) was added to manually weighed 1 mg of solid compound in a 4 ml vial. The resulting suspension was shaken at 900 rpm for 4 hours at room temperature and then transferred to a Multiscreen HTS, 96-well solubility filter plate to separate the residual solid and the filtrate. Quantification of the compound concentration in the filtrate was performed by HPLC-UV using single point calibration of a known concentration of the compound in DMSO. […] The dynamic range of the assay was 1-1000 μg/ml.

The IC50 is the point on the concentration scale where inhibition reaches its midpoint. One may read the solubility as how much of the substance goes into solution per volume. Read a low solubility as little dissolved substance. On Full-length human DNMT1, `CCc1c(C#N)c(S[C@@H](C(N)=O)c2ccccc2)nc(N2CC[C@H](O)C2)c1C#N` [Reference compound 2, reference compound] registered an IC50 of 156 nM. Moreover, the solubility at 4 h in “physchem” worked out at 2.7 µg/mL (≈ 6.63 µM). As for `CC(=O)CC(c1ccccc1)c1c(O)c2ccccc2oc1=O` (stereo not drawn) [Warfarin], the “known solubility of internal standards” value in series [1] is 140 µg/mL. The bioavailability is dose-corrected exposure relative to a reference, in per cent. Lower therefore signals little systemic uptake. For `CCc1c(C#N)c(S[C@@H](C(N)=O)c2ccc(OC)cc2)nc(N2CC[C@H](O)C2)c1C#N` [Reference compound 4, reference compound], in series [2], the IC50 was 79 nM. The compound further had a bioavailability in series [3] (non-fasted male Sprague-Dawley rats, n=2/dose route) of 6.1%. Also, the concentration in solution in “physchem” (solubility at 4 h) came to 4 µg/mL (≈ 9.14 µM). The compound `CCc1c(C#N)c(SC(C(N)=O)c2ccc(OS(C)(=O)=O)cc2)nc(N(C)C)c1C#N` (racemic) [Example 4, 4-(2-amino-1-((3,5-dicyano-6-(dimethylamino)-4-ethylpyridin-2-yl)thio)-2-oxoethyl)phenyl methanesulfonate] came in with an IC50 at Full-length human DNMT1 of 107 nM. The solubility at 4 h in “physchem” was less than 1 µg/mL. In series [2], `CCc1c(C#N)c(SC(C(N)=O)c2ccc(Cl)cc2)nc(N(C)C)c1C#N` (stereo not drawn) [Reference compound 3] yielded an IC50 of 631 nM. On to `CCc1c(C#N)c(S[C@@H](C(N)=O)c2ccccc2)nc(N(C)C)c1C#N` [Reference compound 1, reference compound], for which the solubility at 4 h in “physchem” is less than 1 µg/mL. Compound `CCc1c(C#N)c(S[C@@H](C(N)=O)c2ccc(OS(C)(=O)=O)cc2)nc(N(C)C)c1C#N` [Example 2, (R)-4-(2-amino-1-((3,5-dicyano-6-(dimethylamino)-4-ethylpyridin-2-yl)thio)-2-oxoethyl)phenyl methanesulfonate] came in with an IC50 on Full-length human DNMT1 of 54 nM. Besides, the bioavailability in series [3] (non-fasted male Wistar Han rats, n=3/dose route) stood at 40%. In the series “physchem”, this compound displayed a solubility at 4 h of 1 µg/mL.

Compound `CCc1c(C#N)c(SC(C(=O)NP(=O)(O)O)c2ccc(OS(C)(=O)=O)cc2)nc(N(C)C)c1C#N` (stereo not drawn) [Example 3, (2-((3,5-dicyano-6-(dimethylamino)-4-ethylpyridin-2-yl)thio)-2-(4-((methylsulfonyl)oxy)phenyl)acetyl)phosphoramidic acid] displayed an IC50 against Full-length human DNMT1 of 5210 nM. In “physchem”, the solubility at 4 h was more than 1000 µg/mL.
